Reference: patent US20080051438A1, “Preventive/Therapeutic Compositions Useful for Treating Cardiovascular Diseases” (priority 2006, published 2008)

Columns and labels:
Assay type in all cases: in vivo, human
hypertensive patients [1] = experiment: Special investigation of combined use of cilnidipine and ARB: degree of the blood pressure controls judged by the doctor (efficacy ratio); design: concentration or dose not given beside the values; conditions: named ARB alone, then cilnidipine additionally administered, kind of ARB unchanged; blood pressure control in the 12th week
Method: (§1) A special investigation was conducted in various medical centers, compiled, and analyzed to evaluate the safety and availability of the combined use of cilnidipine and at least one angiotensin II receptor blocker.
(§2) The subjects of the investigation were hypertensive patients which were adapted to cilnidipine. Combined administration of cilnidipine and ARB was started for the treatment of hypertension in these patients.
(§3) A prospective continuous investigation method was conducted. Such a method is continuously conducted with the registered cases with the combined administration of cilnidipine (Atelec®) and ARB, until the number of cases reaches the contracted cases for each center.
(§4) Regarding the administration method of cilnidipine, 5 to 10 mg of cilnidipine was orally administered after breakfast once a day. Meanwhile, the amount may increase or decrease depending on patient's age, symptoms, or the like. When the effect is insufficient, the amount can be increased to 20 mg once a day. The dosing period of cilnidipine was set to 12 weeks in principle.
(§5) The following items were tracked during the investigation: patient's background (sex), existence or nonexistence of previous therapeutic agents and the content thereof, targeted blood pressure (systolic BP/diastolic BP), the conditions of administration of cilnidipine and ARB, antihypertensives used in combination (those other than cilnidipine or ARB), clinical course (systolic BP/diastolic BP/heart rate), and occurrence of side-effects. As for the availability of the combined administration, in the 12th week after starting the combined administration, the doctor in attendance judged the degree of the blood pressure controls on a three-point scale of “well-controlled”, “nearly well-controlled” and “poorly-controlled”, referring to the changes in the systolic and diastolic BP. As for the safety and availability analysis for each patient background, Fisher's exact probability test or the X^2 test was used. As for the blood pressure and heart rate, the average value and the standard deviation were calculated for the subjects before the combined administration (within 4 weeks before starting the combined administration), and data after starting the combined administration were determined on each observation day, and analysis was conducted by using a paired t-test. The test was conducted as the two-sided test and less than 5% of the risk rate was regarded as significant. Furthermore, side-effects were compiled based on the naming of preferred terms (PT) of MedDRA/J ver 8.0.
As the index of availability, in the 12th week after starting the combined administration, the doctor in attendance judged the degree of the blood pressure controls on a three-point scale of “well-controlled”, “nearly well-controlled” and “poorly-controlled”.
(1) Among the 2919 cases in the availability analysis, 42 cases in which the degree of the blood pressure controls was not described, and 168 cases which could not be judged, were excluded. In the other 2709 cases, the ratio of number of cases judged as “nearly well-controlled” or higher was calculated as the efficacy ratio. Accordingly, the efficacy ratio of the subject cases in the availability analysis was 84.8% (2298 cases/2709 cases).

hypertensive patients [2] = experiment: Special investigation of combined use of cilnidipine and ARB: changes in systolic and diastolic blood pressure
Method: as §1, §2, §3, §4, §5
Table 7 and FIG. 2 show the number of cases for which the blood pressure was measured, and the changes in the measured values of systolic BP, diastolic BP, and heart rate were measured at the following time points: before starting the combined administration, 4 weeks, 8 weeks, and 12 weeks after starting the combined administration, and the last measurement, […] administration, n=2919). […] Then, it continued to slowly decrease, and the a stable change was seen up to 12 weeks after the start.

hypertensive patients [3] = experiment: Special investigation of combined use of cilnidipine and ARB: changes in heart rate; conditions: for heart rate (beat/min.) last meas., ave.: named ARB + 10 mg cilnidipine after switch from 5 mg amlodipine, 12 weeks or later to the last measurement; for heart rate (beat/min.) last meas.: named ARB + cilnidipine 10 mg, last measurement; for heart rate (beat/min.) last meas. / heart rate (beat/min.) start. admin., ave. / heart rate (beat/min.) start admin.: doses unchanged; for heart rate (beat/min.) 12th wk aft admin.: named ARB + cilnidipine only, 12 weeks after starting the combined administration; for heart rate (beat/min.) start. admin., ave.: on named ARB + 5 mg amlodipine, at switch of amlodipine to 10 mg cilnidipine; for heart rate (beat/min.) start admin.: on named ARB alone (candesartan 8, valsartan 80, losartan 50, telmisartan 40 mg) at start of adding cilnidipine 10 mg; for heart rate (beat/min.) upon start. admin.: on named ARB alone, before cilnidipine was additionally administered
Method: as §1, §2, §3, §4, §5
Table 7 and FIG. 2 show the number of cases for which the blood pressure was measured, and the changes in the measured values of systolic BP, diastolic BP, and heart rate were measured at the following time points: before starting the combined administration, 4 weeks, 8 weeks, and 12 weeks after starting the combined administration, and the last measurement, which was 222.43 days in average from the start of the combined administration, n=2919). […] Then, it continued to slowly decrease, and the a stable change was seen up to 12 weeks after the start.

[4] = named ARB + 10 mg cilnidipine after switch from 5 mg amlodipine, 12 weeks or later to the last measurement
[5] = named ARB + cilnidipine 10 mg, doses unchanged, last measurement, 211.43 ± 133.43 day after starting the combined use
[6] = named ARB + cilnidipine only, 12 weeks after starting the combined administration
[7] = on named ARB + 5 mg amlodipine, at switch of amlodipine to 10 mg cilnidipine, doses unchanged
[8] = on named ARB alone (candesartan 8, valsartan 80, losartan 50, telmisartan 40 mg) at start of adding cilnidipine 10 mg, doses unchanged
[9] = on named ARB alone, before cilnidipine was additionally administered

Row | SMILES | efficacy ratio (%) (hypertensive patients [1]) | diastolic BP (hypertensive patients [2]; [4]) [mmHg] | systolic BP (hypertensive patients [2]; [4]) [mmHg] | diastolic BP (hypertensive patients [2]; [5]) [mmHg] | systolic BP (hypertensive patients [2]; [5]) [mmHg] | diastolic BP (hypertensive patients [2]; [6]) [mmHg] | systolic BP (hypertensive patients [2]; [6]) [mmHg] | diastolic BP (hypertensive patients [2]; [7]) [mmHg] | systolic BP (hypertensive patients [2]; [7]) [mmHg] | diastolic BP (hypertensive patients [2]; [8]) [mmHg] | systolic BP (hypertensive patients [2]; [8]) [mmHg] | diastolic BP (hypertensive patients [2]; [9]) [mmHg] | systolic BP (hypertensive patients [2]; [9]) [mmHg] | heart rate (beat/min.) last meas., ave. (hypertensive patients [3]) [beat/min.] | heart rate (beat/min.) last meas. (hypertensive patients [3]) [beat/min.] | heart rate (beat/min.) 12th wk aft admin. (hypertensive patients [3]) [beat/min.] | heart rate (beat/min.) start. admin., ave. (hypertensive patients [3]) [beat/min.] | heart rate (beat/min.) start admin. (hypertensive patients [3]) [beat/min.] | heart rate (beat/min.) upon start. admin. (hypertensive patients [3]) [beat/min.]
1 | CCCc1nc2c(C)cc(-c3nc4ccccc4n3C)cc2n1Cc1ccc(-c2ccccc2C(=O)O)cc1 [telmisartan] | 88.0 | 83.08 | 147.23 | 80.49 ± 12.78 | 138.89 ± 15.89 | 80.70 ± 11.71 | 143.64 ± 12.53 | 86.15 | 155.00 | 93.52 ± 10.84 | 163.00 ± 17.32 | 90.94 ± 12.27 | 161.33 ± 12.62 | 71.00 | 72.12 ± 9.42 | 73.09 ± 9.29 | 70.00 | 74.24 ± 11.55 | 74.95 ± 12.70
2 | CCCCc1nc(Cl)c(CO)n1Cc1ccc(-c2ccccc2-c2nn[nH]n2)cc1 [losartan] | 89.8 | 79.78 | 138.22 | 79.32 ± 9.82 | 137.74 ± 15.19 | 79.45 ± 9.20 | 139.52 ± 14.43 | 82.00 | 150.35 | 90.40 ± 10.35 | 161.84 ± 16.13 | 88.67 ± 9.91 | 160.78 ± 14.13 | 72.44 | 73.66 ± 9.49 | 73.95 ± 7.68 | 72.00 | 74.13 ± 8.98 | 73.81 ± 8.29
3 | CCCCC(=O)N(Cc1ccc(-c2ccccc2-c2nnn[nH]2)cc1)[C@H](C(=O)O)C(C)C [valsartan] | 86.0 | 80.74 | 140.67 | 80.62 ± 10.40 | 140.75 ± 15.61 | 79.31 ± 10.42 | 138.32 ± 14.28 | 89.36 | 158.15 | 91.43 ± 11.20 | 160.65 ± 16.04 | 91.50 ± 10.58 | 160.65 ± 15.20 | 75.86 | 72.89 ± 10.20 | 71.65 ± 9.38 | 77.18 | 74.08 ± 10.41 | 73.22 ± 9.51
4 | CCOc1nc2cccc(C(=O)O)c2n1Cc1ccc(-c2ccccc2-c2nnn[nH]2)cc1 [candesartan] | 85.5 | 78.58 | 140.96 | 79.81 ± 12.72 | 141.02 ± 17.36 | 79.81 ± 12.72 | 141.29 ± 17.02 | 82.90 | 152.10 | 89.59 ± 14.80 | 164.98 ± 16.35 | 89.59 ± 14.80 | 163.78 ± 17.52 | 72.58 | 72.47 ± 11.14 | 72.66 ± 11.86 | 75.54 | 74.19 ± 10.96 | 75.14 ± 11.48
5 | CCCc1nc(C(C)(C)O)c(C(=O)O)n1Cc1ccc(-c2ccccc2-c2nnn[nH]2)cc1 [olmesartan] | 100.0 | – | – | – | – | – | – | – | – | – | – | – | – | – | – | – | – | – | –
